Like-named read-outs stand apart in the source and are kept apart here.
What was measured:
C. elegans [1] = system: C. elegans
Experimental: C. elegans strains and maintenance. Animals were grown and maintained using standard C. elegans conditions at 20° C. on NGM plates and were fed E. coli strain HB101. N2 worms were used as wild-type and the following mutants and transgenic strains were used from Caenorhabditis Genetics Center (CGC, University of Minnesota): EU1 skn-1(zu67) (IV)/nT1[unc-?(n754); let-?], EU31 skn-1(zu135))/nT1[unc-?(n754); let-?], CL2166 dvIs19 [gst-4p::GFP::NLS], CL691 dvIs19 [gst-4p::GFP::NLS], skn-1(zu67)/nT [unc-?(n754) let-?], LG333 skn-1(zu135)/nT1[qIs51]; ldIs7[skn-1b/c::GFP], LG348 skn-1(zu135)/nT1[qIs51]; geIs9 [gpa-4p::skn-1b::GFP+rol-6(su1006)], LG357 skn-1(zu135)/nT1[qIs51]; geIs10 [ges-1p(long)::skn-1c::GFP+rol-6(su1006)], and LD1 ldIs7 [skn-1b/c::GFP+rol-6(su1006)].
Lifespan analysis. All lifespan assays were performed at 20° C. according to standard protocols described elsewhere. […] Worms were transferred to fresh plates every day after reaching adulthood, and every two days after reaching 10 days of age. Prodding test as described above was used to count the number of dead worms. Survival curve was plotted using Prism 7 and the significance of the curves calculated by Log-rank (Mantel-Cox) test.
RNA Interference. Synchronized L1 larvae were placed on NGM plates containing 1 mM IPTG and fed HT115 bacterial strain containing scramble or skn-1 RNAi plasmids. All the experiments were done at 20° C.

thioredoxin 1 (Trx1) = details: SH-SY5Y, after 24 h and 48 h
Experimental: Trx1 reduces the cysteine residues critical for binding of Nrf2 to AREs (Hansen et al., 2004).
(§1) Western Blot Analysis. Protein expression was determined by Western blot analysis. Equal amount of protein from each sample was run in Tris-glycine SDS PAGE gel, followed by transferring to PVDF membrane. After blocking the membrane with 5% milk for 1 hour at room temperature, the membrane was incubated further for 2 hours with antibodies specific for target proteins: Nrf2, pNrf2(S40) from Novus (Littleton, Colo.); Keap1, HO-1, NQO1, GCLc, GCLm and lamin B1 from Cell Signaling (Danvers, Mass.); GAPDH from Santa Cruz (Dallas, Tex.); β-Actin from Thermo Fisher (Waltham, Mass.). The membrane was subsequently incubated with species-specific HRP-conjugated secondary antibody followed by incubation with chemiluminescence substrate and imaging. The band intensity of each of the target proteins was quantified using ImageQuant software (GE Healthcare, Sweden). Western blot analysis on worm lystaes was done similarly. […] Equal amounts of protein were run on the gel and SKN-1 protein level was detected using anti-GFP antibody.

[2] = system: GCLc, GCLm, HO-1, and NQO-1; details: SH-SY5Y, 24 h
Experimental: GSH is regulated by the rate-limiting enzyme GCL consisted of GCLc and GCLm subunits. […] The inventors then used extracellular lactate dehydrogenase cytotoxicity assay to measure cell survival.
as §1

C. elegans [3] = system: C. elegans; remark: listed apart in the source
Experimental: The inventors also evaluated locomotion in worms to investigate the health of the rescued animals.
Locomotion Assays. To measure locomotion, worms were subjected to 30 seconds video recording on a Zeiss Axio Zoom. V16 fluorescence dissecting microscope equipped with Axiocam 503 and ZEN2 software. Bending rate (the number of body-bends-per-seconds) was measured by placing live animals on a plate containing M9 buffer, filming for 30 seconds and counting the number of bends. Healthiness of the worms was measured by their bending rate of young, middle aged and aged animals. […] The results were obtained from 3 individual trials.

SH-SY5Y cells [4] = assay: Mitochondrial membrane potential (TMRE); type: cell-based, human; details: hydralazine 0, 10, 20 μM; isoniazid 20 μM
Experimental: (§2) Cells were stained by TMRE to tag active mitochondria. Florescence signal was quantified by Flow Jo software. […] ATP levels were measured by bioluminescent detection of luciferase activity. All data are presented normalized to cell number.
(§3) The mitochondrial membrane potential was measured as an indicator of cellular energetics and ATP content.

SH-SY5Y cells [5] = details: 0, 10, 20 μM, 3 days
Experimental: as §2, §3

LC3 = details: 0, 5, 10 μM, ± bafilomycin 20 nM, 4 hours
From the text: (§4) Results are expressed as means±SD from three independent experiments. […] Cell lysates were then subjected to Western blot analysis.
(§5) A cell titer glow luminescence assay was used to measure cell cytotoxicity. […] LC3, microtubule-associated protein 1 light chain 3, which is a homologue of Apg8p essential for autophagy in yeast, is processed posttranslationally into LC3-I in cytosol. LC3-I is then converted into LC3-II, which associates with autophagosome membranes. The ratio of LC3-II/LC3-I determines the status of the autophagy process.

SH-SY5Y cells [6] = system: SH-SY5Y cells
From the text: as §4, §5

SH-SY5Y cells [7] = details: Aβ (1-42) 20 μM, 24 hour; 46% with Aβ alone
Experimental: Densitometry values were normalized against actin.
After 24 hour treatment, cell viability was measured using the cell titer glow luminescence assay.

[8] = system: glutathione S-transferase-4 (GST-4)
Experimental: The inventors measured the expression of glutathione S-transferase-4 (GST-4), a downstream target of SKN-1, in a transgenic strain (CL2166) expressing GFP driven by the GST-4 promoter (Kahn et al., 2008).
Imaging. To measure the GFP intensity, synchronized populations of worms were anesthetized and arranged on agarose pad. The intestinal SKN-1::GFP was assayed by confocal microscopy (X40) (Nikon A1R, Nikon Instruments Inc., Melville, N.Y., USA) (FIG. 5A). The quantification of intestinal SKN-1::GFP was performed with ImageJ (FIG. 5B). The ASI SKN-1::GFP was assayed by a Zeiss Axiolmager M2 microscope equipped with a Hamamatsu Flash 4.0 Scientific c-mos camera and Zen2 software (X40) (FIG. 5D). The quantification of ASI SKN-1::GFP was performed with ImageJ using a sliding paraboloid algorithm for reducing the background followed by edge detection. The t-test was conducted with Welsh correction since the standard deviations were not equal (FIG. 5E). The GSTp::GFP intensity was measured same as ASI SKN-1::GFP but with ×5 magnification. The GSTp::GFP quantification was done using the whole worm signal following the same protocol as intestinal SKN-1::GFP (FIG. 5G).

Keap1-Nrf2 = Keap1-Nrf2 (Homo sapiens, UniProt Q14145); details: data not shown
Keap1-Nrf2, sequence (Q14145 whole entry): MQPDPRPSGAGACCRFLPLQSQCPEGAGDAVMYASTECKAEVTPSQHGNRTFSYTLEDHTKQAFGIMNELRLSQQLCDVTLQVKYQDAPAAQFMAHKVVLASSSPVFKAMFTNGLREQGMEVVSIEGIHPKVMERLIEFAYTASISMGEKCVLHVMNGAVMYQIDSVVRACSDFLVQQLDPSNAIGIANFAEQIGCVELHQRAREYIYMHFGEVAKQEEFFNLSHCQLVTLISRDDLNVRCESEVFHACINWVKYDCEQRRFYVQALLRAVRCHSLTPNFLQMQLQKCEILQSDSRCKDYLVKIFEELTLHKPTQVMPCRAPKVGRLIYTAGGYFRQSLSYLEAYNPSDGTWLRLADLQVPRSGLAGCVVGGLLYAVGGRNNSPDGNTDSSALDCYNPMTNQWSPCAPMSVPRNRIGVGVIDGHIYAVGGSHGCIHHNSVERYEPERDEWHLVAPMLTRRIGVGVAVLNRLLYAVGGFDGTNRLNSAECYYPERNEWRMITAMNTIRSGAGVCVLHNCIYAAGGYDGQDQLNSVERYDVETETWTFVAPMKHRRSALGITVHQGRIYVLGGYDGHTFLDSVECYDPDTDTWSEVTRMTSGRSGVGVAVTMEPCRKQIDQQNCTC

Experimental for primary cortical neurons: For each group (control, 0.5 μM Hyd, 1 μM Hyd, 2 μM Hyd and 2 μM Dimebon) 10 images from three replicates were analyzed. Total numbers of spines, stubby, thin, and mushroom were counted by NeuronStudio software for each image. The mean value and standard deviation of numbers for each group were calculated. P value was calculated with non-parametric T-test. All values are mean±SD (*p<0.05, **p<0.01).
Primary neuronal cells from cortex were visualized with td-Tomato (FIG. 21A). Cells were treated with 500 nM Aβ-42 oligomers or vehicle (Ctrl). Spine density and morphology were measured per 10 micron by confocal imaging. […] Mushroom and thins are indicated with an arrow. […] Dimebon, a known neuroprotective compound, was used as positive control in all experiments. Data were collected from three batches of cultures for all treatments and Ctrl. For spine quantification n=8-10 (for each treatment per one experiment) neurons were analyzed by Neuronstudio. Scale bar corresponds to 5 μm. Experiment was repeated three times. Values are shown as mean±SEM. (*p<0.05, **p<0.01, ***p<0.001, ****p<0.0001).
Primary neuronal cells were isolated from the cortex of mice pups on day 0 (P0) and cultured in 24 well plates covered by poly-D-lysine coated coverslips with a density of 1.0×105 for 7 days. Cells were then transfected with tdTomato plasmid and incubated for 14 additional days (4). […] Dimebon (2 μM) was used as a positive control. After 24 hours of treatment, cells were fixed and scanned with a Zeiss microscope at 100× resolution for visualizing spines on the dendrites. The images were analyzed using Neuronstudio software (5). […] Structural formation and the maturation of spines were also analyzed.

`NNc1nncc2ccccc12` [Hydralazine] was tested, and the “Variation Compared to Control (%)” value (C. elegans [1]; EU1 skn-1(zu67), 100 μM Hyd (printed 100 IJM), FIG. 7G) was “+11.7%”, the “Variation Compared to Control (%)” value (C. elegans [1]; EU31 skn-1(zu135), 100 μM Hyd (printed 100 IlM), FIG. 7G) was “+3.3%” and the “Variation Compared to Control (%)” value (C. elegans [1]; LG348 (geIs9, skn-1b), 100 μM Hyd (printed 100 IJM), FIG. 7H) was “+10.8%”. The “Variation Compared to Control (%)” value (C. elegans [1]; LG357 (geIs10, skn-1c), 100 μM Hyd (printed 100 FM), FIG. 7H) was “+2.7%”, the “Variation Compared to Control (%)” value (C. elegans [1]; N2, 10 μM Hyd (printed 10 IJM), FIG. 7E) was “+4.82%” and the lifespan extension (C. elegans [1]; N2, 100 μM) was no more than 25%. For the same compound, the “Variation Compared to Control (%)” value (C. elegans [1]; N2, 100 μM Hyd (printed 100IJM), FIG. 7E) was “+24.4%”, the “Variation Compared to Control (%)” value (C. elegans [1]; N2, 200 μM Hyd (printed 200 IlM), FIG. 7E) was “+13.3%” and the “Variation Compared to Control (%)” value (C. elegans [1]; N2-Scramble RNAi, 100 μM (printed 100 IJM), FIG. 7F) was “+22.2%”. The “Variation Compared to Control (%)” value (C. elegans [1]; N2-skn-1 RNAi, 100 μM, FIG. 7F) was −5.4%, the “pro-longevity effect in skn-1(zu135) mutant and skn-1 knockdown worms” value (C. elegans [1]; in vivo) was “completely lost” and the “extension of medium and maximum lifespan” value (C. elegans [1]; worms treated with hydralazine) was “at least 25%”. For the same compound, the “increase of the amount of Trx1” value (thioredoxin 1 (Trx1)) was 25%, the HO-1 upregulation [2] was 30% and the NQO-1 upregulation [2] was 40%. For the same compound, the “expression of GCLc, GCLm, HO-1, and NQO-1” value ([2]; Western blotting) was “significant increase in expression”, the “locomotor performance in skn-1(zu135) animals” value (C. elegans [3]; 4, 8, 12 days) was “did not improve” and the “locomotor performance of young (5 days), middle age (10 days), and old (15 days) N2 animals” value (C. elegans [3]; N2) was “significant improvement”. For the same compound, the “locomotor performance of pre-treated animals exposed to rotenone” value (C. elegans [3]; N2, 100 μM, 50 μM rotenone 6 h) was “superior locomotor performance”, the “mitochondrial membrane potential / mitochondrial function (TMRE)” value (SH-SY5Y cells [4]) was “improves mitochondrial function in a dose dependent manner” and the “total ATP content” value (SH-SY5Y cells [5]) was “elevated ATP level in a concentration dependent manner”. For the same compound, the “ratio of LC3-II/LC3-I” value (LC3) was “increase in the ratio of LC3-II/LC3-I”, the “protection against oxidative stress under proteasomal inhibition by MG132” value (SH-SY5Y cells [6]; MG132 10 μM, H2O2 100 μM, 4 hours) was “does not have an impact” and the “protection against oxidative stress under autophagy inhibition with bafilomycin” value (SH-SY5Y cells [6]; bafilomycin 20 nM, H2O2 100 μM, 4 hours) was “significantly reduces the ability of hydralazine to protect cells”. The “concentration at which no toxicity was observed” value (SH-SY5Y cells [6]; human, 48 h) was “up to 25 μM”, the “concentration with significant decrease in cell viability compared to control” value (SH-SY5Y cells [6]; human, 48 h) was no less than 50 µM and the “cells surviving Aβ (1-42) peptide treatment” value (SH-SY5Y cells [7]) was 70-80%. The “GST-4p::GFP signal in worms fed skn-1(RNAi) or skn-1(zu67)” value ([8]; 100 μM, 72 h) was “did not increase GFP signal”, the “GST-4p::GFP signal” value ([8]; strain CL2166, 48 h after treatment) was “significant increase in the GFP signal” and the “spine density after Aβ-42 oligomers” value (primary cortical neurons; 1 μM, 500 nM Aβ-42, 24 hours) was “restoration of spine density”. For the same compound, the “numbers of spines in a 10 micron length of dendrite” value (primary cortical neurons; 0.5, 1.0, 2.0 μM, 24 hours) was “significantly increased”, the “stubby formation and mushroom spines” value (primary cortical neurons; 0.5, 1.0, 2.0 μM, 24 hours) was “increased the stubby formation and numbers of matured spines” and the “direct binding and interruption of Keap1-Nrf2 interaction” value (Keap1-Nrf2) was “ruled out the direct binding hypothesis”.
